# Source: the OligoGym collection
# Bases are written 5' to 3'; sugars and linkages follow in the same order, as letters with counts (s phosphorothioate, o phosphodiester; PS: all linkages phosphorothioate). The collection does not say whether C is 5-methylated. l = locked nucleic acid (LNA); d = 2'-deoxy (DNA)
# Molecular target: Tau
# Assay: rat primary cortical neurons, FLIPR, 25 uM ASO
row,Sequence,calcium oscillation score
1,"CTAATTACATTTTTTCTT (sugars l4 d10 l4, PS)",63.9 % of control
2,"ACCCATTATCTGCTCC (sugars l3 d11 l2, PS)",50.9 % of control
3,"CCAAATTCCTCATAATCCAA (sugars l2 d15 l3, PS)",73.4 % of control
4,"AACTGGTTTGTAGACT (sugars l3 d10 l3, PS)",0 % of control
5,"CATATTCTTCCCTTAATAA (sugars l3 d13 l3, PS)",68 % of control
6,"CTTATTAATTATCTGC (sugars l4 d8 l4, PS)",33.9 % of control
7,"CACCTCCTGGTTTATG (sugars l3 d10 l3, PS)",65.3 % of control
8,"CCACTTTACTTTGCAAC (sugars l4 d11 l2, PS)",55.8 % of control
9,"ACATCTAAACACCTCAATCC (sugars l2 d15 l3, PS)",73.2 % of control
10,"GCTCTTCAAATCATTCA (sugars l4 d11 l2, PS)",81.1 % of control
11,"TTACACCATCCAAGTCAATG (sugars l3 d14 l3, PS)",24.2 % of control
12,"CTCATTTACCAATTATCTTT (sugars l4 d14 l2, PS)",64 % of control
13,"GCTTCAGTCCTAATC (sugars l3 d9 l3, PS)",11.5 % of control
14,"CTTAGCATCAGAGGTTTCAG (sugars l3 d14 l3, PS)",7.41 % of control
15,"GGTTGGATCAGAGGGT (sugars l3 d10 l3, PS)",7.41 % of control
16,"ATCATAATCCTACCACCA (sugars l3 d13 l2, PS)",87.5 % of control
17,"ATTCATTTTACTTTACTTT (sugars l4 d11 l4, PS)",64.6 % of control
18,"TGTTTGATATTATCCT (sugars l3 d10 l3, PS)",104 % of control
19,"TGCCTAATGAGCCACA (sugars l3 d10 l3, PS)",44.4 % of control
20,"CCATGTCGATGCTGCC (sugars l3 d10 l3, PS)",55.1 % of control
21,"TGGTTAGCCCTAAAGT (sugars l3 d10 l3, PS)",77 % of control
22,"CTTGGCTTTTTTGTCATCGC (sugars l3 d14 l3, PS)",23.3 % of control

row,Sequence,calcium oscillation score
1,"ACTTTTGAACCCATTCC (sugars l2 d12 l3, PS)",83.6 % of control
2,"AACATCATGTCACACA (sugars l4 d8 l4, PS)",56.3 % of control
3,"ATTTATTAATTCATAAATGA (sugars l3 d14 l3, PS)",46.3 % of control
4,"GTAGACTATTTGCA (sugars l3 d8 l3, PS)",105 % of control
5,"TCTTCACATCCCAACTA (sugars l2 d12 l3, PS)",126 % of control
6,"GCCCATTCTACCTGGCCCAT (sugars l3 d14 l3, PS)",38.3 % of control
7,"TAGTCACTCTGGTGA (sugars l3 d9 l3, PS)",78.1 % of control
8,"TCTTCAGGTCTGGCAT (sugars l3 d10 l3, PS)",39.1 % of control
9,"CTCTTTCTTAATTCAGA (sugars l4 d10 l3, PS)",60.1 % of control
10,"TGCTCTTAGCATCAGAGGTT (sugars l3 d14 l3, PS)",25.9 % of control
11,"CAGGAGTTGTAAGC (sugars l3 d8 l3, PS)",77.5 % of control
12,"GCAACAATCCAACCACT (sugars l3 d12 l2, PS)",65.4 % of control
13,"GATACTCAAATTCTTCC (sugars l4 d10 l3, PS)",67.8 % of control
14,"CTTCAGTCCTAATCCT (sugars l3 d10 l3, PS)",95.8 % of control
15,"AACATATATATTACACTTC (sugars l4 d11 l4, PS)",111 % of control
16,"GGCCTGATCACAAACC (sugars l3 d10 l3, PS)",132 % of control
17,"ACATGCTAATCAATAC (sugars l4 d8 l4, PS)",57.8 % of control
18,"GCGACTTGTACACG (sugars l3 d8 l3, PS)",63.7 % of control
19,"TTTCCTGCAAATTCTCA (sugars l4 d10 l3, PS)",66.8 % of control
20,"ATTTCCAAATTCACTTTTAC (sugars lldllddddddddddlldll, PS)",85.2 % of control
21,"CCTTAAAGCTCCAACA (sugars l4 d10 l2, PS)",94.6 % of control
